Test results published in ChEMBL document CHEMBL5154855 (J Med Chem, 2022).
Active and inactive are the calls of the source. The rule behind the calls is not given here. Positions of bridges follow the written chain, without caps; N, C: chain ends. Non-standard residues stand in square brackets, D forms with d. Residues, ends and D or L forms follow the SMILES beside them. d2Nal = N[C@H](Cc1ccc2ccccc2c1)C(=O)O; Nle = CCCC[C@H](N)C(=O)O

Key:
Melanocortin receptor 3 [1] = molecular target: T1, Melanocortin receptor 3 (Homo sapiens, UniProt P41968); experiment: Antagonist activity at human MC3R transfected in HEK293T cells co-transfected with GScAMP22F assessed as inhibition of alpha-MSH-indued cAMP production; assay type: functional, cell-based; conditions: HEK293, filed as antagonist
T1 sequence (P41968 whole entry): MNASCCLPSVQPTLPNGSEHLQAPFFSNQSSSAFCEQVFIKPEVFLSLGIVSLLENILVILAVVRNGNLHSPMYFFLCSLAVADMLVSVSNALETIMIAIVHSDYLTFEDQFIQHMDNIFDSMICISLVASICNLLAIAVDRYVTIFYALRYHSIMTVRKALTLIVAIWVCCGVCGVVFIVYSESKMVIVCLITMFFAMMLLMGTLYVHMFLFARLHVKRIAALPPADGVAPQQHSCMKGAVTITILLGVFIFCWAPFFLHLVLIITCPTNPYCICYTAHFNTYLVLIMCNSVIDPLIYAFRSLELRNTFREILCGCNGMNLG

[2] = molecular target: Melanocortin receptor 4 (Homo sapiens) (UniProt P32245); experiment: Antagonist activity at human MC4R transfected in HEK293T cells co-transfected with GScAMP22F assessed as inhibition of alpha-MSH-indued cAMP production; assay type: functional, cell-based; conditions: HEK293, filed as antagonist
Chain of Melanocortin receptor 4 (Homo sapiens) (P32245 whole entry): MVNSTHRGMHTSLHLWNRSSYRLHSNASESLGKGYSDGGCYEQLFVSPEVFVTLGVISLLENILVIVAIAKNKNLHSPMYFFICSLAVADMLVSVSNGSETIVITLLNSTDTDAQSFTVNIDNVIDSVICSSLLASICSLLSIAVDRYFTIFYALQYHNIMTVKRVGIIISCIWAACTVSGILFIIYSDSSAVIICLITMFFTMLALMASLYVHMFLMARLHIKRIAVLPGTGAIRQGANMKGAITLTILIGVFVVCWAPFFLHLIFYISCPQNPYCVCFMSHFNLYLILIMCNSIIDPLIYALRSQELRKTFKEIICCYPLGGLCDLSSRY

Melanocortin receptor 3 [3] = molecular target: T1, Melanocortin receptor 3; experiment: Agonist activity at human MC3R transfected in HEK293 cells assessed as cAMP accumulation by split-luciferase assay
Melanocortin receptor 3 [4] = molecular target: T1, Melanocortin receptor 3; experiment: Agonist activity at human MC3R transfected in HEK293T cells co-transfected with GScAMP22F assessed as increase in cAMP level; assay type: functional, cell-based; conditions: HEK293, filed as agonist
[5] = molecular target: Melanocortin receptor 4 (Homo sapiens) (UniProt P32245); experiment: Agonist activity at human MC4R transfected in HEK293T cells co-transfected with GScAMP22F assessed as increase in cAMP level; assay type: functional, cell-based; conditions: HEK293, filed as agonist
[6] = molecular target: Melanocortin receptor 5 (Homo sapiens) (UniProt P33032); experiment: Agonist activity at human MC5R transfected in HEK293 cells co-transfected with GScAMP22F assessed as increase in cAMP level by split luciferase cAMP sensor dynamic assay relative to control; assay type: functional, cell-based
Chain of Melanocortin receptor 5 (Homo sapiens) (P33032 whole entry): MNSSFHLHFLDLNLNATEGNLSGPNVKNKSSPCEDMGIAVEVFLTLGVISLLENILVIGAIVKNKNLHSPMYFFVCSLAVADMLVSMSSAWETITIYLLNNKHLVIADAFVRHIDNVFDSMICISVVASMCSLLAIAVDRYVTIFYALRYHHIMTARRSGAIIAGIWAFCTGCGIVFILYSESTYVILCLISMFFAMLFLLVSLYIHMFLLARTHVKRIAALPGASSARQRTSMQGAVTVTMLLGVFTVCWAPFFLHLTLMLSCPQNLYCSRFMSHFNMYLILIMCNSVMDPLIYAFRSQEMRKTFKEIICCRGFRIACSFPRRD

[7] = molecular target: Melanocyte-stimulating hormone receptor (Homo sapiens) (UniProt Q01726); experiment: Agonist activity at human MC1R transfected in HEK293 cells co-transfected with GScAMP22F assessed as increase in cAMP level by split luciferase cAMP sensor dynamic assay relative to control; assay type: functional, cell-based
Chain of Melanocyte-stimulating hormone receptor (Homo sapiens) (Q01726 whole entry, looked up): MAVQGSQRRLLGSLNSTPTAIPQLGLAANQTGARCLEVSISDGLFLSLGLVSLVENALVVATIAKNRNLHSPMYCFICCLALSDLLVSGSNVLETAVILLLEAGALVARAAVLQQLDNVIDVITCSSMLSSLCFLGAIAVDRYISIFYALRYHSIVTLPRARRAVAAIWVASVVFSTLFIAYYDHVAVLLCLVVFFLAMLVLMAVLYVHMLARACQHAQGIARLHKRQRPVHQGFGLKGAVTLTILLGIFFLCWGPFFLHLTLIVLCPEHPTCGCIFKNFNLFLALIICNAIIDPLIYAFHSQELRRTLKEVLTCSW

`CC(=O)N[C@@H](CCCNC(=N)N)C(=O)N[C@@H]1CSSC[C@H](C(N)=O)NC(=O)[C@H](Cc2c[nH]c3ccccc23)NC(=O)[C@H](CCCNC(=N)N)NC(=O)[C@@H](Cc2ccc3ccccc3c2)NC(=O)[C@H](Cc2c[nH]cn2)NC(=O)[C@@H](C)NC1=O` was tested, and the Activity (Melanocortin receptor 3 [1]) was “Active” and the Activity [2] was “Active”.

Work on `CCCC[C@H](NC(=O)[C@@H](NC(=O)[C@@H](N)Cc1ccc(O)cc1)C(C)C)C(=O)NCC(=O)N[C@@H](Cc1c[nH]cn1)C(=O)N[C@H](Cc1ccc2ccccc2c1)C(=O)N[C@@H](CCCN=C(N)N)C(=O)N[C@@H](Cc1c[nH]c2ccccc12)C(=O)N[C@@H](CC(=O)O)C(=O)N[C@@H](CCCN=C(N)N)C(=O)N[C@@H](Cc1ccccc1)C(=O)NCC(N)=O` yielded an EC50 (Melanocortin receptor 3 [3]) of over 10 µM.

With `CCCC[C@H](NC(=O)[C@@H](NC(=O)[C@@H](N)Cc1ccc(O)cc1)C(C)C)C(=O)NCC(=O)N[C@@H](Cc1cnc[nH]1)C(=O)N[C@H](Cc1ccc2ccccc2c1)C(=O)N[C@@H](CCCNC(=N)N)C(=O)N[C@H](Cc1c[nH]c2ccccc12)C(=O)N[C@@H](CC(=O)O)C(=O)N[C@@H](CCCNC(=N)N)C(=O)N[C@@H](Cc1ccccc1)C(=O)NCC(=O)O` the Activity (Melanocortin receptor 3 [1]) was “Active” and the Activity [2] was “Active”.

`CCCC[C@H](N)C(=O)N[C@H]1CC(=O)NCCCC[C@@H](C(N)=O)NC(=O)[C@H](Cc2c[nH]c3ccccc23)N(C)C(=O)[C@H](CCCNC(=N)N)NC(=O)[C@@H](Cc2ccccc2)NC(=O)[C@@H]2CCCN2C1=O` was tested, and the Activity (Melanocortin receptor 3 [4]) was “Active” and the Activity [5] was “Active”.

For `CCCC[C@H](NC(=O)[C@@H](NC(=O)[C@@H](N)Cc1ccc(O)cc1)C(C)C)C(=O)NCC(=O)N1CCC[C@H]1C(=O)N[C@H](Cc1ccc2ccccc2c1)C(=O)N[C@@H](CCCN=C(N)N)C(=O)N[C@@H](Cc1c[nH]c2ccccc12)C(=O)N[C@@H](CC(=O)O)C(=O)N[C@@H](CCCN=C(N)N)C(=O)N[C@@H](Cc1ccccc1)C(=O)NCC(N)=O` (H-YV[Nle]GP[d2Nal]RWDRFG-NH2), the Emax [6] was under 10%.

With `CC(=O)N[C@@H](CCCNC(=N)N)C(=O)N[C@H]1CSSC[C@@H](C(N)=O)NC(=O)[C@H](Cc2c[nH]c3ccccc23)NC(=O)[C@H](CCCNC(=N)N)NC(=O)[C@@H](Cc2ccccc2)NC(=O)[C@H](Cc2c[nH]cn2)NC(=O)[C@@H](C)NC1=O` the Activity (Melanocortin receptor 3 [4]) was “Active” and the Activity [5] was “Active”.

In the case of `CCCC[C@H](NC(=O)[C@@H](NC(=O)[C@@H](N)Cc1ccc(O)cc1)C(C)C)C(=O)NCC(=O)N[C@@H](Cc1cnc[nH]1)C(=O)N[C@@H](Cc1ccccc1)C(=O)N[C@@H](CCCNC(=N)N)C(=O)N[C@H](Cc1c[nH]c2ccccc12)C(=O)N[C@@H](CC(=O)O)C(=O)N[C@@H](CCCNC(=N)N)C(=O)N[C@@H](Cc1ccccc1)C(=O)NCC(=O)O`, the Activity [5] is reported as “Active”.

`CCCC[C@H](NC(C)=O)C(=O)N[C@H]1CC(=O)NCCCC[C@@H](C(N)=O)NC(=O)[C@H](Cc2c[nH]c3ccccc23)NC(=O)[C@H](CCCNC(=N)N)NC(=O)[C@@H](Cc2ccc3ccccc3c2)NC(=O)[C@@H]2CCCN2C(=O)[C@@H]2CCCN2C1=O` (Ac-[Nle]DPP[d2Nal]RWK-NH2; lactam 2-8) was tested, and the Emax [7] was under 10%.
